Source: patent EP4725941A1, “ARYLAMIDE DERIVATIVE HAVING ANTITUMOR ACTIVITY” (priority 2020, dated 2021)

How the values were obtained:
[1] = system: Calu-6; experiment: Cell proliferation-inhibiting activity (ATP in viable cells, CellTiter-Glo), Calu-6; assay type: cell-based, human; settings: Calu-6, 96 h; human lung cancer cells, 4 days; read-out: Calu-6 IC50
[2] = system: A549; experiment: Cell proliferation-inhibiting activity (ATP in viable cells, CellTiter-Glo), A549; assay type: cell-based, human; settings: A549, 96 h; human lung cancer cells, 4 days; read-out: A549 IC50
[3] = target: T1, MEK1 (Homo sapiens, UniProt Q02750); experiment: MEK1-inhibiting activity, fluorescent polarization method (CRAF/MEK1/ERK2 cascade, IMAP); assay type: biochemical; settings: Table 3; read-out: MEK1 IC50
T1 construct: purchased Thermo Fisher Scientific Inc. (MEK1, CRAF); Carna Biosciences, Inc. (ERK2)
T1 sequence (Q02750 whole entry): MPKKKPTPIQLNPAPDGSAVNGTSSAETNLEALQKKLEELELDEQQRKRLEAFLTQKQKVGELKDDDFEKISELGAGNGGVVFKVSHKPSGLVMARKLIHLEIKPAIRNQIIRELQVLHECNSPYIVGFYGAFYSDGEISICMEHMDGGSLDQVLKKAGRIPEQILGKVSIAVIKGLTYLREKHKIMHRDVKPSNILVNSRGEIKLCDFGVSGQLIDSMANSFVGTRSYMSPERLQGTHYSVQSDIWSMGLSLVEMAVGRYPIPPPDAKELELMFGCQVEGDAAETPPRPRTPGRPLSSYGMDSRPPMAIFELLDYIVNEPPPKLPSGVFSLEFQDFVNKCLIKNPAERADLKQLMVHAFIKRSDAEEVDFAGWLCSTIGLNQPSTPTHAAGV
Protocol: The MEK1-inhibiting activity of the compounds listed in Table 3 below were evaluated by the fluorescent polarization method as described below.

[4] = Human liver microsome stability; assay type: in vitro ADME; settings: human liver microsomes, pH 7.4
[5] = target: T2, BRAF (Homo sapiens, UniProt P15056); experiment: BRAF-inhibiting activity, time-resolved fluorescence-fluorescence resonance energy transfer assay; assay type: biochemical; settings: read-out: BRAF IC50; Table 3
T2 construct: purchased Eurofins Genomics KK; (BRAF); Thermo Fisher Scientific Inc. (MEK1)
T2 sequence (P15056 417-766 limits assumed): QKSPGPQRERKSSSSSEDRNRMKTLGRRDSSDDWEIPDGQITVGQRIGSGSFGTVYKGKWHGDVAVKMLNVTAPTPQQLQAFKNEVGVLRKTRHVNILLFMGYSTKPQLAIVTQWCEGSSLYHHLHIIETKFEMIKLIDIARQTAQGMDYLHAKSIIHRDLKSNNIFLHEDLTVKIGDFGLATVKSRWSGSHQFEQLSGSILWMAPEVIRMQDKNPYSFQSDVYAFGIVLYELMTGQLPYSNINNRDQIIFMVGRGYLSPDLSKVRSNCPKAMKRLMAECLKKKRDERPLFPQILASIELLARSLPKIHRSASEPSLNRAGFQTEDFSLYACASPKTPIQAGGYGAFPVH
Protocol: The BRAF-inhibiting activity of the compounds listed in Table 3 below was evaluated by the time-resolved fluorescence-fluorescence resonance energy transfer assay as described below.

[6] = system: NCI-H2122; experiment: Cell proliferation-inhibiting activity (ATP in viable cells, CellTiter-Glo), NCI-H2122; assay type: cell-based, human; settings: NCI-H2122, 96 h; human lung cancer cells, 4 days; read-out: NCI-H2122 IC50

Row | Compound | IC50 [1] | IC50 [2] | IC50 [3] | microsomal CLint at 0.99 µM [4] | IC50 [5] | IC50 [6]
1 | CNS(=O)(=O)Nc1cccc(Cc2cc(C(=O)NC3CC3)c(Nc3ccc(I)cc3F)c(F)c2F)c1 [Compound C-6, N-Cyclopropyl-3,4-difluoro-2-(2-fluoro-4-iodoanilino)-5-[[3-(methylsulfamoylamino)phenyl]methyl]benzamide] | 31 nM | 6 nM | 268 nM | 74 µL/min/mg | 9 nM | 4 nM
2 | CCS(=O)(=O)Nc1cccc(Cc2cc(C(N)=O)c(Nc3ccc(I)cc3F)c(F)c2F)c1F [Compound D-4, 5-[[3-(ethylsulfonylamino)-2-fluorophenyl]methyl]-3,4-difluoro-2-(2-fluoro-4-iodoanilino)benzamide] | 67 nM | 16 nM | 196 nM | 9 µL/min/mg | 3 nM | 5 nM
3 | COCCS(=O)(=O)Nc1cccc(Cc2cc(C(N)=O)c(Nc3ccc(I)cc3F)c(F)c2F)c1F [Compound D-5, 3,4-Difluoro-2-(2-fluoro-4-iodoanilino)-5-[[2-fluoro-3-(2-methoxyethylsulfonylamino)phenyl]methyl]benzamide] | 71 nM | 10 nM | 169 nM | 28 µL/min/mg | 7 nM | 5 nM
4 | CNS(=O)(=O)Nc1cccc(Cc2cc(C(=O)NC3CC3)c(Nc3ccc(I)cc3F)c(F)c2F)c1F [Compound D-6, N-Cyclopropyl-3,4-difluoro-2-(2-fluoro-4-iodoanilino)-5-[[2-fluoro-3-(methylsulfamoylamino)phenyl]methyl]benzamide] | 24 nM | 8 nM | 55 nM | 34 µL/min/mg | 8 nM | 2 nM
5 | NS(=O)(=O)Nc1cccc(Cc2cc(C(=O)NC3CC3)c(Nc3ccc(I)cc3F)c(F)c2F)c1F [Compound D-7, N-Cyclopropyl-3,4-difluoro-2-(2-fluoro-4-iodoanilino)-5-[[2-fluoro-3-(sulfamoylamino)phenyl]methyl]benzamide] | 9 nM | 3 nM | 282 nM | 11 µL/min/mg | 4 nM | 2 nM
6 | CCS(=O)(=O)Nc1cccc(Cc2cc(C(=O)NOC)c(Nc3ccc(I)cc3F)c(F)c2F)c1F [Compound E-1, 5-[[3-(ethylsulfonylamino)-2-fluorophenyl]methyl]-3,4-difluoro-2-(2-fluoro-4-iodoanilino)-N-methoxybenzamide] | 6 nM | 2 nM | 40 nM | 17 µL/min/mg | 12 nM | 0.4 nM
7 | CCS(=O)(=O)Nc1cccc(Cc2cc(C(=O)NOC(C)(C)C)c(Nc3ccc(I)cc3F)c(F)c2F)c1F [Compound E-2, 5-[[3-(Ethylsulfonylamino)-2-fluorophenyl]methyl]-3,4-difluoro-2-(2-fluoro-4-iodoanilino)-N-[(2-methylpropan-2-yl)oxy]benzamide] | 19 nM | 6 nM | 86 nM | 42 µL/min/mg | 22 nM | 2 nM
8 | COCC1(S(=O)(=O)Nc2cccc(Cc3cc(C(=O)NOC(C)(C)C)c(Nc4ccc(I)cc4F)c(F)c3F)c2F)CC1 [Compound E-4] | 26 nM | 6 nM | 131 nM | 168 µL/min/mg | 11 nM | 5 nM
9 | CONC(=O)c1cc(Cc2cccc(NS(=O)(=O)C3(C)CC3)c2F)c(F)c(F)c1Nc1ccc(I)cc1F [Compound E-5, 3,4-Difluoro-2-(2-fluoro-4-iodoanilino)-5-[[2-fluoro-3-[(1-methylcyclopropyl)sulfonylamino]phenyl]methyl]-N-methoxybenzamide] | 17 nM | 5 nM | 19 nM | 78 µL/min/mg | 8 nM | 3 nM
10 | CC(C)(C)ONC(=O)c1cc(Cc2cccc(NS(=O)(=O)C3(C)CC3)c2F)c(F)c(F)c1Nc1ccc(I)cc1F [Compound E-6, 3,4-Difluoro-2-(2-fluoro-4-iodoanilino)-5-[[2-fluoro-3-[(1-methylcyclopropyl)sulfonylamino]phenyl]methyl]-N-[(2-methylpropan-2-yl)oxy]be nzamide] | 28 nM | 8 nM | 34 nM | 105 µL/min/mg | 17 nM | 6 nM
11 | CNS(=O)(=O)Nc1cccc(Cc2cc(C(N)=O)c(Nc3ccc(I)cc3F)c(F)c2F)c1F [Compound E-7, 3,4-difluoro-2-(2-fluoro-4-iodoanilino)-5-[[2-fluoro-3-(methylsulfamoylamino)phenyl]methyl]benzamide] | 8 nM | 1 nM | 334 nM | 5 µL/min/mg | 6 nM | 0.4 nM
12 | CCS(=O)(=O)Nc1cccc(Cc2cc(C(=O)NOC)c(Nc3ccc(I)cc3Cl)c(F)c2F)c1F [Compound E-9, 2-(2-chloro-4-iodoanilino)-5-[[3-(ethylsulfonylamino)-2-fluorophenyl]methyl]-3,4-difluoro-N-methoxybenzamide] | 57 nM | 7 nM | 95 nM | 13 µL/min/mg | 11 nM | 6 nM
13 | CCS(=O)(=O)Nc1cccc(Cc2cc(C(=O)NOC(C)(C)C)c(Nc3ccc(I)cc3Cl)c(F)c2F)c1F [Compound E-10, 2-(2-Chloro-4-iodoanilino)-5-[[3-(ethylsulfonylamino)-2-fluorophenyl]methyl]-3.4-difluoro-N-[(2-methylpropan-2-yl)oxy]benzamide] | 27 nM | 4 nM | 84 nM | 51 µL/min/mg | 23 nM | 3 nM
14 | CCS(=O)(=O)Nc1cccc(Cc2cc(C(N)=O)c(Nc3ccc(I)cc3Cl)c(F)c2F)c1F [Compound E-11, 2-(2-Chloro-4-iodoanilino)-5-[[3-(ethylsulfonylamino)-2-fluorophenyl]methyl]-3,4-difluorobenzamide] | 73 nM | 6 nM | 454 nM | 11 µL/min/mg | 5 nM | 6 nM
15 | CC(C)(C)ONC(=O)c1cc(Cc2cccc(NS(=O)(=O)NC3CC3)c2F)c(F)c(F)c1Nc1ccc(I)cc1Cl [Compound E-12, 2-(2-Chloro-4-iodoanilino)-5-[[3-(cyclopropylsulfamoylamino)-2-fluor ophenyl]methyl]-3,4-difluoro-N-[(2-methylpropan-2-yl)oxy]benzamide] | 8 nM | 3 nM | 260 nM | 160 µL/min/mg | 17 nM | 2 nM
16 | NC(=O)c1cc(Cc2cccc(NS(=O)(=O)CC3CC3)c2F)c(F)c(F)c1Nc1ccc(I)cc1F [Compound E-14, 5-[[3-(Cyclopropylmethylsulfonylamino)-2-fluorophenyl]methyl]-3,4-di fluoro-2-(2-fluoro-4-iodoanilino)benzamide] | 71 nM | 13 nM | 343 nM | 22 µL/min/mg | 17 nM | 7 nM
17 | CC1(S(=O)(=O)Nc2cccc(Cc3cc(C(N)=O)c(Nc4ccc(I)cc4F)c(F)c3F)c2F)CC1 [Compound E-16, 3,4-Difluoro-2-(2-fluoro-4-iodoanilino)-5-[[2-fluoro-3-[(1-methylcyclopropyl)sulfonylamino]phenyl]methyl]benzamide] | 87 nM | 33 nM | 352 nM | < 1 µL/min/mg | 12 nM | 7 nM
18 | CC(C)CS(=O)(=O)Nc1cccc(Cc2cc(C(N)=O)c(Nc3ccc(I)cc3F)c(F)c2F)c1F [Compound E-17, 3,4-Difluoro-2-(2-fluoro-4-iodoanilino)-5-[[2-fluoro-3-(2-methylpropylsulfonylamino)phenyl]methyl]benzamide] | 110 nM | 31 nM | 199 nM | 24 µL/min/mg | 6 nM | 7 nM
19 | COCC1(S(=O)(=O)Nc2cccc(Cc3cc(C(N)=O)c(Nc4ccc(I)cc4F)c(F)c3F)c2F)CC1 [Compound E-19] | 87 nM | 9 nM | 332 nM | 115 µL/min/mg | 34 nM | 9 nM
20 | NC(=O)c1cc(Cc2cccc(NS(=O)(=O)C3CC3)c2F)c(F)c(F)c1Nc1ccc(I)cc1F [Compound E-22, 5-[[3-(Cyclopropylsulfonylamino)-2-fluorophenyl]methyl]-3,4-difluoro-2-(2-fluoro-4-iodoanilino)benzamide] | 87 nM | 6 nM | 302 nM | 18 µL/min/mg | 4 nM | 3 nM
21 | NC(=O)c1cc(Cc2cccc(NS(=O)(=O)C3CCOCC3)c2F)c(F)c(F)c1Nc1ccc(I)cc1F [Compound E-23, 3,4-difluoro-2-(2-fluoro-4-iodoanilino)-5-[[2-fluoro-3-(oxan-4-ylsulfonylamino)phenyl]methyl]benzamide] | 47 nM | 31 nM | 61 nM | 98 µL/min/mg | 6 nM | 4 nM
